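Results reflect a 48-hour exposure of cells in 96-well plates to compound at five concentrations. Abbreviation: GI50, concentration required for 50% inhibition of growth.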 The source made the active and inactive calls. No stated cut-off is given here; in the data, active = GI50 up to about 1.1 µM and inactive = higher.
Key:
Assay in all cases: NCI-60 cell line screen, 48 h
SK-MEL-5 = system: SK-MEL-5
A498 = system: A498
NCI-H460 = system: NCI-H460
SF-295 = system: SF-295
M14 = system: M14
K562 = system: K562
SNB-19 = system: SNB-19
UACC-62 = system: UACC-62
SN12C = system: SN12C
HT-29 = system: HT-29
786-0 = system: 786-0
OVCAR-8 = system: OVCAR-8
NCI-H522 = system: NCI-H522
LOX IMVI = system: LOX IMVI
CCRF-CEM = system: CCRF-CEM
SF-268 = system: SF-268
DLD-1 = system: DLD-1
SR = system: SR
HOP-62 = system: HOP-62
A549 = system: A549
IGROV-1 = system: IGROV-1
SNB-78 = system: SNB-78
U-251 = system: U-251
RXF 631 = system: RXF 631
UO-31 = system: UO-31
LXFL 529 = system: LXFL 529
HCT-116 = system: HCT-116
SW-620 = system: SW-620
KM12 = system: KM12
TK-10 = system: TK-10
Malme-3M = system: Malme-3M
SK-MEL-28 = system: SK-MEL-28
HOP-92 = system: HOP-92
HL-60 = system: HL-60
HCC 2998 = system: HCC 2998
SK-MEL-2 = system: SK-MEL-2
CAKI-1 = system: CAKI-1
OVCAR-4 = system: OVCAR-4
NCI-H226 = system: NCI-H226
SF-539 = system: SF-539
DMS-273 = system: DMS-273
ACHN = system: ACHN
UACC-257 = system: UACC-257
RPMI-8226 = system: RPMI-8226
NCI-H23 = system: NCI-H23
RXF 393 = system: RXF 393
MOLT-4 = system: MOLT-4
SK-OV-3 = system: SK-OV-3
M19-MEL = system: M19-MEL
XF498 = system: XF498
SNB-75 = system: SNB-75
OVCAR-3 = system: OVCAR-3
OVCAR-5 = system: OVCAR-5

Measured: GI50

CNC(=O)NCCN1N=C(C)/C(=C\c2ccccc2)CC1=O
inactive: SK-MEL-5 > 100 µM | A498 > 100 µM | NCI-H460 > 100 µM | SF-295 > 100 µM | M14 > 100 µM | K562 > 100 µM | SNB-19 > 100 µM | UACC-62 > 100 µM | SN12C > 100 µM | HT-29 > 100 µM | 786-0 > 100 µM | OVCAR-8 > 100 µM | NCI-H522 > 100 µM | LOX IMVI > 100 µM | CCRF-CEM > 100 µM | SF-268 > 100 µM | DLD-1 > 100 µM | SR > 100 µM | HOP-62 > 100 µM | A549 > 100 µM | IGROV-1 > 100 µM | SNB-78 > 100 µM | U-251 > 100 µM | RXF 631 > 100 µM | UO-31 > 100 µM | LXFL 529 > 100 µM | HCT-116 > 100 µM | SW-620 > 100 µM | KM12 > 100 µM | TK-10 > 100 µM | Malme-3M > 100 µM | SK-MEL-28 > 100 µM | HOP-92 > 100 µM | HL-60 > 100 µM | HCC 2998 > 100 µM | SK-MEL-2 > 100 µM | CAKI-1 > 100 µM | OVCAR-4 > 100 µM | NCI-H226 > 100 µM | SF-539 > 100 µM | DMS-273 > 100 µM | ACHN > 100 µM | UACC-257 > 100 µM | RPMI-8226 > 100 µM | NCI-H23 > 100 µM | RXF 393 > 100 µM | MOLT-4 > 100 µM | SK-OV-3 > 100 µM | M19-MEL > 100 µM | XF498 > 100 µM | SNB-75 29 µM | OVCAR-3 > 100 µM | OVCAR-5 > 100 µM
